Experimental data: ChEMBL document CHEMBL5046296 (J Med Chem, 2022)
Values after ≈ are worked out from the molar mass of the structure shown. Active and inactive are the calls of the source. No cut-off for these calls is given here.

Legend:
[1] = Drug concentration in overnight fasted Sprague-Dawley rat spinal cord with streptozotocin induced diabetic peripheral neuropathic mechanical allodynia at 0.1 mg/kg, po measured at 5.5 hrs post dose; type: ADME, organism-based; conditions: read-out: Ct
[2] = Solubility of the compound at pH 1.2 using crystalline form of sample; type: physicochemical
Cytochrome P450 2B6 = Cytochrome P450 2B6 (Homo sapiens, UniProt P20813); assay: Inhibition of CYP2B6 (unknown origin); type: ADME
Cytochrome P450 2B6, sequence (P20813 whole entry): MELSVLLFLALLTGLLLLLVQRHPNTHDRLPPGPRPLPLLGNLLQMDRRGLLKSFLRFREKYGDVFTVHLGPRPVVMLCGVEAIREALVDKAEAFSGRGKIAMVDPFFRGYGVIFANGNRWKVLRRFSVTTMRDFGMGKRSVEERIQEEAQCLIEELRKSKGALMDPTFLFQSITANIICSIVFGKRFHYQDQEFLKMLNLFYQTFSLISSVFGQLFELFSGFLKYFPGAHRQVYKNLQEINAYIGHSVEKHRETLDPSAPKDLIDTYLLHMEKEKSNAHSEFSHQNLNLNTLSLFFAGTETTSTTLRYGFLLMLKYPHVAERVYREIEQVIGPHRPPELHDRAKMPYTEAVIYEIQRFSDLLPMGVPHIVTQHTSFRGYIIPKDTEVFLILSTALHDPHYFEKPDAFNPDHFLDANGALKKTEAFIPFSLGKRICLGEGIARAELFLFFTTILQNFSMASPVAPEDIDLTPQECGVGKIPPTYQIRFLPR

[3] = Apparent elimination half life in rat at 2 mg/kg, iv; type: ADME, organism-based; conditions: in vivo, read-out: betat1/2(app) (converted)
[4] = Cmax in Sprague-Dawley rat plasma with CCI induced thermal hyperalgesia at 1 mg/kg, po measured at 5.75 hrs post dose; type: ADME, organism-based; set-up: route oral, dose 1 mg/kg, time 5.75 hrs
[5] = Drug uptake in Spinal cord of CCI induced thermal hyperalgesia Sprague-Dawley rat model assessed as spinal occupancy at 0.1 mg/kg, po measured at 5.75 hrs post dose in presence of [3H]BMT-046091; type: ADME, organism-based; conditions: in vivo
Cytochrome P450 3A4 [6] = biological target: T1, Cytochrome P450 3A4 (Homo sapiens, UniProt P08684); assay: Time dependent inhibition of CYP3A4 (unknown origin) using BSF as substrate measured at 5 mins; type: ADME
T1 sequence (P08684 whole entry): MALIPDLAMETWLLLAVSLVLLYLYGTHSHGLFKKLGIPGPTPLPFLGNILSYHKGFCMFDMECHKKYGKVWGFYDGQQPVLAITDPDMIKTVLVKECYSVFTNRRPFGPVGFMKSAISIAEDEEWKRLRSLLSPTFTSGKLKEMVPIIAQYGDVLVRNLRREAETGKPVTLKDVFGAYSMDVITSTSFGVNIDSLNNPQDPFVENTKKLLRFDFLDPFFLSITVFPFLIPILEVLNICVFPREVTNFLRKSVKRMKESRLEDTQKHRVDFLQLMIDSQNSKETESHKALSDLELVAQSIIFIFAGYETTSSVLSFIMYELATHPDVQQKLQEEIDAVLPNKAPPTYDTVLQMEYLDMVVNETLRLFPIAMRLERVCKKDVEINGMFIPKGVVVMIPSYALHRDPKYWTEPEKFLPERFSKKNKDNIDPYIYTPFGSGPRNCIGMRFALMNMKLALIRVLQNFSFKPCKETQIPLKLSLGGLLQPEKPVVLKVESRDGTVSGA

Cytochrome P450 3A4 [7] = biological target: T1, Cytochrome P450 3A4; assay: Time dependent inhibition of CYP3A4 (unknown origin) using MDZ as substrate measured at 30 mins; type: ADME
[8] = Solubility of the compound in PEG400; type: physicochemical
[9] = Drug concentration in naive Sprague-Dawley rat spinal cord at 3 mg/kg, po measured at 5.25 hrs post dose; type: ADME, organism-based; conditions: read-out: Ct
[10] = Protein binding in human plasma assessed as unbound fraction at 10 uM measured after 5 hrs by LC-MS/MS analysis; type: ADME, cell-free
[11] = Metabolic stability in rat liver microsomes assessed as half life; type: ADME, Microsome
[12] = AUC (infinity) in mouse at 2 mg/kg, iv; type: ADME, organism-based; set-up: time infinity, route intravenous, dose 2 mg/kg; conditions: in vivo
[13] = Lipophilicity, log D of the compound at pH 7.4; type: physicochemical; conditions: buffer
[14] = Protein binding in rat plasma assessed as unbound fraction at 10 uM measured after 5 hrs by LC-MS/MS analysis; type: ADME, cell-free
[15] = Cmax in dog at 3 mg/kg, po; type: ADME, organism-based, Canis lupus familiaris; set-up: route oral, dose 3 mg/kg; conditions: in vivo
[16] = Clearance in mouse at 2 mg/kg, iv; type: ADME, organism-based; conditions: in vivo
[17] = Protein binding in mouse plasma assessed as unbound fraction at 10 uM measured after 5 hrs by LC-MS/MS analysis; type: ADME, cell-free
Rattus norvegicus [18] = assay: Analgesic activity in CCI induced thermal hyperalgesia Sprague-Dawley rat model assessed as efficacy at 1 mg/kg, po measured at 5.75 hrs post dose; type: functional
Bile salt export pump = Bile salt export pump (Homo sapiens, UniProt O95342); assay: Inhibition of BSEP (unknown origin)
Bile salt export pump, sequence (O95342 whole entry): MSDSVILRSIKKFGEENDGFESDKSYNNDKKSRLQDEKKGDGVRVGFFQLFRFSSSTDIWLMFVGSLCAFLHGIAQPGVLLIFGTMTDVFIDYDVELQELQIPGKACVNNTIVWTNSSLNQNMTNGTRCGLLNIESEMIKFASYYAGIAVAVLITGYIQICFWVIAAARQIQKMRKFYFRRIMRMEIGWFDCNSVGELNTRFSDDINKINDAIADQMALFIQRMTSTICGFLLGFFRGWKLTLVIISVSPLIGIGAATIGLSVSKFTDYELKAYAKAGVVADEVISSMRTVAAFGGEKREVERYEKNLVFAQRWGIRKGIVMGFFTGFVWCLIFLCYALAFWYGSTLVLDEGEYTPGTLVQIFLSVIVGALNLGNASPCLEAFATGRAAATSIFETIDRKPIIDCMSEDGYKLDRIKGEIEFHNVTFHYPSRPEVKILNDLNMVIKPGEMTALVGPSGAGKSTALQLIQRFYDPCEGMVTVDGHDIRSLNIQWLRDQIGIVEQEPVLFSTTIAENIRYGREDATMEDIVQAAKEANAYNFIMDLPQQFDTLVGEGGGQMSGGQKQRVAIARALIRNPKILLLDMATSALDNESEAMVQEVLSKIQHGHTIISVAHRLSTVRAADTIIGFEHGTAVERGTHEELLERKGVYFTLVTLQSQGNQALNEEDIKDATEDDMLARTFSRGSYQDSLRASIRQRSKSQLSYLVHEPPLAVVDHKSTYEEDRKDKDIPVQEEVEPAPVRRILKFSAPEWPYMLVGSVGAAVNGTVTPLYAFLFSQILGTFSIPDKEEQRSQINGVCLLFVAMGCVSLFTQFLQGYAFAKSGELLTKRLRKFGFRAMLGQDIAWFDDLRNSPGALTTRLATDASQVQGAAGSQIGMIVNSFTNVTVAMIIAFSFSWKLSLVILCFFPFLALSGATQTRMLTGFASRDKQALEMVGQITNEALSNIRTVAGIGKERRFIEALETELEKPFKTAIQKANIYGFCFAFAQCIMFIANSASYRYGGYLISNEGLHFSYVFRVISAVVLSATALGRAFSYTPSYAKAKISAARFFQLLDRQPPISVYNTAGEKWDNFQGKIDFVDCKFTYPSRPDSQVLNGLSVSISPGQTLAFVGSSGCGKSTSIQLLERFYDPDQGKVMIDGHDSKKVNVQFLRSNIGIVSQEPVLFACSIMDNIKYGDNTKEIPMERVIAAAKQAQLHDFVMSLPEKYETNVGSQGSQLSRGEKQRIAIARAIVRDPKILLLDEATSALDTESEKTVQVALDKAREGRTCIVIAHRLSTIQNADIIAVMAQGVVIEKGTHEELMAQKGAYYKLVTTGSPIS

[19] = Volume of distribution at steady state in rat at 2 mg/kg, iv; type: ADME, organism-based; conditions: in vivo, read-out: Vdss
[20] = Drug concentration in overnight fasted Sprague-Dawley rat spinal cord with streptozotocin induced diabetic peripheral neuropathic mechanical allodynia at 1 mg/kg, po measured at 5.5 hrs post dose; type: ADME, organism-based; conditions: read-out: Ct
[21] = Solubility of the compound in FeSSIF; type: physicochemical
[22] = Solubility of the compound in citrate at pH 4.4 using crystalline form of sample; type: physicochemical
[23] = MRT in dog at 2 mg/kg, iv; type: ADME, organism-based, Canis lupus familiaris; conditions: in vivo
[24] = Cmax in mouse at 3 mg/kg, po; type: ADME, organism-based; set-up: route oral, dose 3 mg/kg; conditions: in vivo
Aorta = assay: Cardiotoxicity in rat aortic ring assessed as relaxation of phenylephrine induced aortic ring contraction at 10 uM incubated for 1 hr; type: toxicity, tissue-based; set-up: scale not given: the % may be the effect or the level left
[25] = Solubility of the compound at pH 6.5 using crystalline form of sample; type: physicochemical
[26] = biological target: Cyclin-G-associated kinase (Homo sapiens, UniProt O14976); assay: Inhibition of GAK (unknown origin)
[27] = Metabolic stability in cynomolgus monkey liver microsomes assessed as half life; type: ADME, Macaca fascicularis, Microsome
[28] = biological target: MAP kinase-interacting serine/threonine-protein kinase 1 (Homo sapiens, UniProt Q9BUB5); assay: Inhibition of MNK1 (unknown origin)
MAP kinase-interacting serine/threonine-protein kinase 1, sequence (Q9BUB5 whole entry): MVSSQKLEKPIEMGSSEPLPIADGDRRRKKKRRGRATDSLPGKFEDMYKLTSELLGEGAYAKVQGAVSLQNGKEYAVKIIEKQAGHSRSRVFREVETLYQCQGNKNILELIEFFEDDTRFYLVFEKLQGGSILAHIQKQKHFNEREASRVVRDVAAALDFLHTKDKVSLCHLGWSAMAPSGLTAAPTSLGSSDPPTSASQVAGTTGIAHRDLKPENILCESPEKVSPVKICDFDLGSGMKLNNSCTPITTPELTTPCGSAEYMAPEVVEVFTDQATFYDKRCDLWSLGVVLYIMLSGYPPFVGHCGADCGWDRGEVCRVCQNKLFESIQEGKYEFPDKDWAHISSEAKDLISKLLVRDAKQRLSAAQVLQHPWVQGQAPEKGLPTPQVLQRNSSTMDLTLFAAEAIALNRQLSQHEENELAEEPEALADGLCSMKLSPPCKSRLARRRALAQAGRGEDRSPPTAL

[29] = Clearance in monkey at 2 mg/kg, iv; type: ADME, organism-based, Macaca mulatta; conditions: rhesus monkey, in vivo
[30] = Drug concentration in Sprague-Dawley rat spinal cord with CCI induced thermal hyperalgesia at 1 mg/kg, po measured at 5.75 hrs post dose; type: ADME, organism-based; conditions: read-out: Ct
Rattus norvegicus [31] = assay: Analgesic activity in CCI induced thermal hyperalgesia in Sprague-Dawley rat assessed as reversal of thermal hyperalgesia by measuring reduction in paw withdrawal latency at 1 mg/kg, po measured after 5.5 hrs by Hargreaves test relative to control; type: functional; set-up: scale not given: the % may be the effect or the level left
Rattus norvegicus [32] = assay: Analgesic activity in streptozotocin induced diabetic peripheral neuropathic mechanical allodynia in overnight fasted Sprague-Dawley rat model assessed as efficacy at 1 mg/kg, po measured at 5.5 hrs post dose; type: functional
[33] = Metabolic stability in human liver microsomes assessed as half life; type: ADME, Microsome
[34] = AUC (infinity) in mouse at 3 mg/kg, po; type: ADME, organism-based; set-up: time infinity, route oral, dose 3 mg/kg; conditions: in vivo
[35] = Oral bioavailability in monkey at 3 mg/kg; type: ADME, organism-based, Macaca mulatta; conditions: rhesus monkey, in vivo
Cytochrome P450 3A4 [36] = biological target: T1, Cytochrome P450 3A4; assay: Time dependent inhibition of CYP3A4 (unknown origin) using TST as substrate measured at 30 mins; type: ADME
[37] = biological target: Hepatic sodium/bile acid cotransporter (Homo sapiens, UniProt Q14973); assay: Inhibition of NTCP (unknown origin)
[38] = Ratio of drug concentration in spinal cord to plasma in Sprague-Dawley rat at 3 mg/kg, po measured at 5.25 hrs post dose; type: ADME, organism-based
[39] = Cmax in Sprague-Dawley rat plasma with CCI induced thermal hyperalgesia at 0.3 mg/kg, po measured at 5.75 hrs post dose; type: ADME, organism-based; set-up: route oral, dose 0.3 mg/kg, time 5.75 hrs
[40] = biological target: MAP kinase-interacting serine/threonine-protein kinase 2 (Homo sapiens, UniProt Q9HBH9); assay: Inhibition of MNK2 (unknown origin)
MAP kinase-interacting serine/threonine-protein kinase 2, sequence (Q9HBH9 whole entry, looked up): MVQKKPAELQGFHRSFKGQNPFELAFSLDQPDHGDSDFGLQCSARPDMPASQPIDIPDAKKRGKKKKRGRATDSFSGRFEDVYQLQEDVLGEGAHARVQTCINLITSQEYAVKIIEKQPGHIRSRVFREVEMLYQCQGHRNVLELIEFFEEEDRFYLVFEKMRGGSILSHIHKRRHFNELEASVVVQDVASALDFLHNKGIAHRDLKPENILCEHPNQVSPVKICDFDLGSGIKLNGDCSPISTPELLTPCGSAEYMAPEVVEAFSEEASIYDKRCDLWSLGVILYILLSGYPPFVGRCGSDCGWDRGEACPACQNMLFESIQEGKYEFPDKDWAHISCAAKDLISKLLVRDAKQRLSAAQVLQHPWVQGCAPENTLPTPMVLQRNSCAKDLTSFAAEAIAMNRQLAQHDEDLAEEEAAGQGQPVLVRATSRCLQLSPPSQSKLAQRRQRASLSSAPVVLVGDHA

[41] = biological target: Serine/threonine-protein kinase LATS2 (Homo sapiens, UniProt Q9NRM7); assay: Inhibition of LATS2 (unknown origin)
Serine/threonine-protein kinase LATS2, sequence (Q9NRM7 whole entry): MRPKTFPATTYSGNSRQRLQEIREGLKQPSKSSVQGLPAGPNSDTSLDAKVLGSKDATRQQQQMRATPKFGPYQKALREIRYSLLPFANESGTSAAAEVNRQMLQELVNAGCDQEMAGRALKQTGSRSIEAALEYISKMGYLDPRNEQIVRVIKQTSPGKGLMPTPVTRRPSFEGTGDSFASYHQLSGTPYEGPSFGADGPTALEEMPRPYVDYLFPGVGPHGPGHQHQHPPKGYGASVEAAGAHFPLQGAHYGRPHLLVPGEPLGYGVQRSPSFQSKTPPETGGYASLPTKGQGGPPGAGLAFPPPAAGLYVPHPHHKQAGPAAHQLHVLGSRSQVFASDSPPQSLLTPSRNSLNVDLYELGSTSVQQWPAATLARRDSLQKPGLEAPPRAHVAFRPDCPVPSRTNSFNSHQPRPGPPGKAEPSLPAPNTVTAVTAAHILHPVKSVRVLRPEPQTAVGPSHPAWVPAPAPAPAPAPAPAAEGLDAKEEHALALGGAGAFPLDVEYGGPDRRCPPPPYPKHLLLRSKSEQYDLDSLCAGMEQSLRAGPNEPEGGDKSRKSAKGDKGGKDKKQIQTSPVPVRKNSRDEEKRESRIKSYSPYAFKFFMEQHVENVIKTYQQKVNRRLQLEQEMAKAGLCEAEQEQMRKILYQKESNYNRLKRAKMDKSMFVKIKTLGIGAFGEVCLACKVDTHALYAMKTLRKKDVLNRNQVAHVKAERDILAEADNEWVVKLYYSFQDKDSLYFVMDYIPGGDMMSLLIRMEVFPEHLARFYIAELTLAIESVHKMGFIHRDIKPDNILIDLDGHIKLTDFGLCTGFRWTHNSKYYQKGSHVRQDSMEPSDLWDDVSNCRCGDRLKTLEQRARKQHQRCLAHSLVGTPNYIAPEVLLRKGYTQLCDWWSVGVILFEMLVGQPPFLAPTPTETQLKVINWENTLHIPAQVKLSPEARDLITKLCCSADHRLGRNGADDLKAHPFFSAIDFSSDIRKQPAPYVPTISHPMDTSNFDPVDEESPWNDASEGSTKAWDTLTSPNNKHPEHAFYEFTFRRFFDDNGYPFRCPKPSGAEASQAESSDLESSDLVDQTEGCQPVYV

[42] = Cmax in overnight fasted Sprague-Dawley rat plasma with streptozotocin induced diabetic peripheral neuropathic mechanical allodynia at 3 mg/kg, po measured at 5.5 hrs post dose; type: ADME, organism-based; set-up: route oral, time 5.5 hrs, dose 3 mg/kg
Cytochrome P450 = Cytochrome P450 (Homo sapiens, UniProt P04798+P05177+P05181+P08684+P10632+P10635+P11509+P11712+P13584+P20813+P20815+P20853+P24462+P24903+P33260+P33261+P51589+P78329+P98187+Q02928+Q08477+Q16678+Q16696+Q5TCH4+Q6VVX0+Q7Z449+Q8TAV3+Q96SQ9+Q9HB55); assay: Metabolic stability in human liver microsomes assessed as CYP450-mediated metabolism by measuring parent compound remaining at 0.5 uM incubated for 10 mins in presence of NADPH by LC-MS/MS analysis; type: ADME; conditions: read-out: Stability
Cytochrome P450 1A2 = Cytochrome P450 1A2 (Homo sapiens, UniProt P05177); assay: Inhibition of CYP1A2 (unknown origin); type: ADME
Cytochrome P450 1A2, sequence (P05177 whole entry): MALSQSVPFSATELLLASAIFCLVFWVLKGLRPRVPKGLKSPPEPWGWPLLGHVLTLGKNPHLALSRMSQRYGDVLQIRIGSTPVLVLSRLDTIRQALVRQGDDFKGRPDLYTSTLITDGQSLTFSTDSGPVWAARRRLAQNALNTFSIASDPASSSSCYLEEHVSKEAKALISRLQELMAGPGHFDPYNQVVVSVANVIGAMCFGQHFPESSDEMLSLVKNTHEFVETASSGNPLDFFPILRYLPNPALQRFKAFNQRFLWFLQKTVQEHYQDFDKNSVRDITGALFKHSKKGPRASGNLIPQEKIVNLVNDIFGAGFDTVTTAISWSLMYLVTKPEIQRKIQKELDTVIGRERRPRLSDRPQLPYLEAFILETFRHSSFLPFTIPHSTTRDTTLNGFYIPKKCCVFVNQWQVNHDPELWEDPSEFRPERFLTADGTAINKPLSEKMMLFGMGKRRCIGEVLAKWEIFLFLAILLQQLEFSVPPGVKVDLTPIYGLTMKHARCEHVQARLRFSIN

Cytochrome P450 2C9 = Cytochrome P450 2C9 (Homo sapiens, UniProt P11712); assay: Inhibition of CYP2C9 (unknown origin); type: ADME

- concentration at 5.5 h [1]: 75 nM
- solubility thermodynamic [2]: 2000 µg/mL (≈ 5.19 mM)
- IC50 (Cytochrome P450 2B6): > 20 µM
- half-life [3]: 8.7 h
- Cmax [4]: 63 nM
- Occ [5]: 37%
- IC50 (Cytochrome P450 3A4 [6]): > 20 µM
- IC50 (Cytochrome P450 3A4 [7]): > 40 µM
- solubility [8]: > 50000 µg/mL
- concentration at 5.25 h [9]: 3860 nM
- fraction unbound at 5 h, 10 µM [10]: 0.085
- half-life [11]: > 2 h
- AUC(0-inf) [12]: 6710 ng·h/mL
- logD [13]: 1.48
- fraction unbound at 5 h, 10 µM [14]: 0.1
- Cmax [15]: 200 ng/mL
- clearance [16]: 5 mL/min/kg
- fraction unbound at 5 h, 10 µM [17]: 0.046
- Vd [19]: 19.6 L/kg
- concentration at 5.5 h [20]: 852 nM
- solubility [21]: 840 µg/mL (≈ 2.18 mM)
- solubility [22]: 1400 µg/mL (≈ 3.63 mM)
- MRT [23]: 6.9 h
- Cmax [24]: 260 ng/mL
- solubility thermodynamic [25]: 440 µg/mL (≈ 1.14 mM)
- IC50 [26]: 0.8 µM
- half-life [27]: 0.212 h
- IC50 [28]: 0.16 µM
- clearance [29]: 41.2 mL/min/kg
- concentration at 5.75 h [30]: 1220 nM
- half-life [33]: > 2 h
- AUC(0-inf) [34]: 5780 ng·h/mL
- bioavailability [35]: 11%
- IC50 (Cytochrome P450 3A4 [36]): > 40 µM
- IC50 [37]: > 30 µM
- Kp at 5.25 h [38]: 19
- Cmax [39]: 19 nM
- inhibition [40]: Active
- IC50 [41]: 0.66 µM
- Cmax [42]: 366 nM
- remaining at 10 min, 0.5 µM (Cytochrome P450): 87%
- IC50 (Cytochrome P450 1A2): > 20 µM
- IC50 (Cytochrome P450 2C9): > 20 µM
SMILES: CC(C)C[C@](C)(N)COc1ccc(-c2ccnc(C(F)F)c2)nc1C(F)F [PILAVAPADIN]
- Efficacy (Rattus norvegicus [18]): 97%
- IC50 (Bile salt export pump): > 30 µM
- Activity (Aorta): 42%
- Activity (Rattus norvegicus [31]): 97%
- Efficacy (Rattus norvegicus [32]): 60%
